Experimental data reported in US20100286173A1 (priority 2008, published 2010).

Assay: Measurement of logP values by HPLC on reversed phase columns (EEC directive 79/831 Annex V.A8)
Format: physicochemical
Details: pH 2.7, 0.1% formic acid in water / acetonitrile gradient 10% to 95%; for chromatographic logP: reversed phase HPLC column

Structure (SMILES)	logp	further results
CCCCCOC(=O)Nc1cccc(CON=C(c2ccc(C(F)(F)F)cc2F)c2nnnn2C)n1 (single isomer, unassigned) [Example 23]	4.78	
CCCCCOC(=O)Nc1cccc(CON=C(c2ccc(C(F)(F)F)cc2F)c2nnnn2C)n1 (single isomer, unassigned) [Example 24]	4.73	
CC(C)C(=O)Nc1cccc(CON=C(c2ccc(C(F)(F)F)cc2F)c2nnnn2C)n1 (single isomer, unassigned) [Example 28]	3.48	
CCCCCOC(=O)Nc1cccc(CON=C(c2ccc(OC(F)(F)F)cc2C)c2nnnn2C)n1 (single isomer, unassigned) [Example 96]	4.89	
CCCCCOC(=O)Nc1cccc(CON=C(c2ccc(OC(F)(F)F)cc2C)c2nnnn2C)n1 (single isomer, unassigned) [Example 97]	5.11	
CCCCCC(=O)Nc1cccc(CON=C(c2ccc(C)c(F)c2)c2nnnn2C)n1 (single isomer, unassigned) [Example 102]	4.21	
CCCCCC(=O)Nc1cccc(CON=C(c2ccc(OC(F)(F)F)cc2C)c2nnnn2C)n1 (single isomer, unassigned) [Example 108]	4.39	
CCCCCOC(=O)Nc1cccc(CON=C(c2cc(C(F)(F)F)ccc2C)c2nnnn2C)n1 (single isomer, unassigned) [Example 110]	4.84	
CCCCCC(=O)Nc1cccc(CON=C(c2ccc(C)cc2Cl)c2nnnn2C)n1 (single isomer, unassigned) [Example 113]	4.16	
CCCCCC(=O)Nc1cccc(CON=C(c2ccc(C)c(F)c2)c2nnnn2C)n1 (single isomer, unassigned) [Example 114]	4.16	
CCCCCC(=O)Nc1cccc(CON=C(c2cc(C)ccc2Cl)c2nnnn2C)n1 (single isomer, unassigned) [Example 117]	4.19	
Cn1nnnc1C(=NOCc1cccc(N)n1)c1ccc(C(F)(F)F)cc1F (single isomer, unassigned) [Example 141]		Log p: 1.82
Cn1nnnc1C(=NOCc1cccc(N)n1)c1ccc(C(F)(F)F)cc1F (single isomer, unassigned) [Example 142]		Log p: 1.72
Cn1nnnc1C(=NOCc1cccc(N)n1)c1cccc(C(F)(F)F)c1F (single isomer, unassigned) [Example 144]		Log p: 1.65
Cc1cc(F)cc(C(=NOCc2cccc(NC(=O)CC(C)C)n2)c2nnnn2C)c1 (single isomer, unassigned) [Example 157]		Log p: 3.71
Cc1cc(F)cc(C(=NOCc2cccc(NC(=O)CC(C)C)n2)c2nnnn2C)c1 (single isomer, unassigned) [Example 158]		Log p: 3.76
CCCCOC(=O)Nc1ccnc(CON=C(c2ccc(C)c(C(F)(F)F)c2)c2nnnn2C)n1 [Example 8, butyl(2-{[({(1-methyl-1H-tetrazol-5-yl)[4-methyl-3-(trifluoromethyl)phenyl]methylidene}amino)oxy]methyl}pyrimidin-4-yl)carbamate]		chromatographic logP: 4.24
CCCCCOC(=O)Nc1nc(CON=C(c2ccc(C)c(C(F)(F)F)c2)c2nnnn2C)cs1 [Example 22, pentyl(4-{[({(1-methyl-1H-tetrazol-5-yl)[4-methyl-3-(trifluoromethyl)phenyl]methylidene}amino)oxy]methyl}-1,3-thiazol-2-yl)carbamate]		chromatographic logP: 4.73
CCCCCC(=O)Nc1cccc(CON=C(c2ccc(C(F)(F)F)cc2F)c2nnnn2C)n1 [Example 26]	4.29	
CCCCCC(=O)Nc1cccc(CON=C(c2cccc(C(F)(F)F)c2F)c2nnnn2C)n1 [Example 27, N-(6-{[({[2-fluoro-3-(trifluoromethyl)phenyl](1-methyl-1H-tetrazol-5-yl)methylidene}amino)oxy]methyl}pyridin-2-yl)hexanamide]		chromatographic logP: 4.16
CCCCCC(=O)Nc1cccc(CON=C(c2cc(C)ccc2F)c2nnnn2C)n1 [Example 29]	3.83	
Cc1ccc(C(=NOCc2cccc(NC(=O)CC(C)C)n2)c2nnnn2C)cc1F [Example 32]	3.71	
Cc1cccc(C(=NOCc2cccc(NC(=O)CC(C)C)n2)c2nnnn2C)c1F [Example 33]	3.51	

Structure (SMILES)	logp	further results
Cc1cc(OC(F)(F)F)ccc1C(=NOCc1cccc(NC(=O)CC(C)C)n1)c1nnnn1C [Example 34]	4.16	
Cc1ccc(Cl)c(C(=NOCc2cccc(NC(=O)CC(C)C)n2)c2nnnn2C)c1 [Example 35]	3.73	
Cc1cc(C(=NOCc2cccc(NC(=O)CC(C)C)n2)c2nnnn2C)ccc1F [Example 37]	3.67	
Cc1ccc(C(=NOCc2cccc(NC(=O)CC(C)C)n2)c2nnnn2C)c(F)c1 [Example 38]	3.53	
CCCCCOC(=O)Nc1cccc(CON=C(c2cc(C)cc(C)c2)c2nnnn2C)n1 [Example 39]	4.86	
Cc1ccc(C(=NOCc2cccc(NC(=O)CC(C)C)n2)c2nnnn2C)c(Cl)c1 [Example 40]	3.73	
CCCCCC(=O)Nc1cccc(CON=C(c2cc(C)ccc2F)c2nnnn2C)n1 [Example 42]	3.83	
Cc1ccc(C(=NOCc2cccc(NC(=O)CC(C)C)n2)c2nnnn2C)cc1C(F)(F)F [Example 43]	4.16	
CCCCCOC(=O)Nc1cccc(CON=C(c2cccc(C(F)(F)F)c2C)c2nnnn2C)n1 [Example 44]	4.78	
CCCCCC(=O)Nc1cccc(CON=C(c2cc(F)cc(C(F)(F)F)c2)c2nnnn2C)n1 [Example 45]	4.29	
Cc1ccc(C(=NOCc2cccc(NC(=O)CC(C)C)n2)c2nnnn2C)c(Cl)c1 [Example 46]	3.73	
Cc1ccc(F)c(C(=NOCc2cccc(NC(=O)CC(C)C)n2)c2nnnn2C)c1 [Example 48]	3.53	
Cc1ccc(C(=NOCc2cccc(NC(=O)CC(C)C)n2)c2nnnn2C)c(Cl)c1 [Example 51]	3.53	
CCCCCOC(=O)Nc1ccnc(CON=C(c2ccc(C)c(C(F)(F)F)c2)c2nnnn2C)n1 [Example 52]	4.62	
C#CCCOC(=O)Nc1cccc(CON=C(c2ccc(F)c(C)c2)c2nnnn2C)n1 [Example 53]	3.55	
C=CCCOC(=O)Nc1cccc(CON=C(c2ccc(F)c(C)c2)c2nnnn2C)n1 [Example 55]	3.92	
C=CCOC(=O)Nc1cccc(CON=C(c2ccc(F)c(C)c2)c2nnnn2C)n1 [Example 56]	3.63	
Cc1cc(C(=NOCc2cccc(NC(=O)CCOc3ccccc3)n2)c2nnnn2C)ccc1F [Example 57]	3.87	
Cc1cc(C(=NOCc2cccc(NC(=O)CCC3CCCC3)n2)c2nnnn2C)ccc1F [Example 58]	4.56	
COc1ccc(CC(=O)Nc2cccc(CON=C(c3ccc(F)c(C)c3)c3nnnn3C)n2)cc1 [Example 59]	3.68	
COc1cccc(CC(=O)Nc2cccc(CON=C(c3ccc(F)c(C)c3)c3nnnn3C)n2)c1 [Example 60]	3.72	
COc1ccccc1CC(=O)Nc1cccc(CON=C(c2ccc(F)c(C)c2)c2nnnn2C)n1 [Example 61]	3.9	
Cc1ccc(Cl)c(C(=NOCc2cccc(NC(=O)CC(C)C)n2)c2nnnn2C)c1 [Example 62]	3.53	

Structure (SMILES)	logp	further results
CC(C)CC(=O)Nc1cccc(CON=C(c2cc(C(F)(F)F)ccc2Cl)c2nnnn2C)n1 [Example 63]	3.96	
Cc1ccc(C(F)(F)F)cc1C(=NOCc1cccc(NC(=O)CC(C)C)n1)c1nnnn1C [Example 64]	3.94	
CC(C)CC(=O)Nc1cccc(CON=C(c2cc(F)cc(C(F)(F)F)c2)c2nnnn2C)n1 [Example 65]	3.89	
CC(C)CC(=O)Nc1cccc(CON=C(c2ccc(F)c(C(F)(F)F)c2)c2nnnn2C)n1 [Example 66]	3.94	
Cc1ccc(C(F)(F)F)cc1C(=NOCc1cccc(NC(=O)CC(C)C)n1)c1nnnn1C [Example 67]	3.62	
Cc1ccc(C(=NOCc2cccc(NC(=O)CC(C)C)n2)c2nnnn2C)cc1C(F)(F)F [Example 69]	4.14	
CC(C)CC(=O)Nc1cccc(CON=C(c2ccc(Cl)c(C(F)(F)F)c2)c2nnnn2C)n1 [Example 70]	4.26	
CC(C)CC(=O)Nc1cccc(CON=C(c2ccc(C(F)(F)F)c(Cl)c2)c2nnnn2C)n1 [Example 71]	4.29	
Cc1c(F)cccc1C(=NOCc1cccc(NC(=O)CC(C)C)n1)c1nnnn1C [Example 73]	3.53	
Cc1ccc(F)c(C(=NOCc2cccc(NC(=O)CC(C)C)n2)c2nnnn2C)c1 [Example 75]	3.42	
CCCCCOC(=O)Nc1cccc(CON=C(c2ccc(C)c(C(F)(F)F)c2)c2nnnn2C)n1 [Example 78]	5.05	
CCCCCOC(=O)Nc1cccc(CON=C(c2ccc(C(F)(F)F)c(Cl)c2)c2nnnn2C)n1 [Example 79]	5.23	
CCCCCOC(=O)Nc1cccc(CON=C(c2ccc(C)c(C(F)(F)F)c2)c2nnnn2C)n1 [Example 81]	5.08	
CCCCCOC(=O)Nc1cccc(CON=C(c2ccc(F)c(C(F)(F)F)c2)c2nnnn2C)n1 [Example 82]	4.86	
CCCCCOC(=O)Nc1cccc(CON=C(c2cc(C)ccc2Cl)c2nnnn2C)n1 [Example 83]	4.54	
CCCCCOC(=O)Nc1cccc(CON=C(c2cc(C)ccc2Cl)c2nnnn2C)n1 [Example 84]	4.73	
CCCCCOC(=O)Nc1cccc(CON=C(c2ccc(C(F)(F)F)c(Cl)c2)c2nnnn2C)n1 [Example 86]	5.2	
CCCCCOC(=O)Nc1cccc(CON=C(c2cccc(C(F)(F)F)c2Cl)c2nnnn2C)n1 [Example 87]	4.81	
CCCCCOC(=O)Nc1cccc(CON=C(c2ccc(Cl)c(C(F)(F)F)c2)c2nnnn2C)n1 [Example 88]	5.14	
CCCCCC(=O)Nc1cccc(CON=C(c2ccc(C)c(C(F)(F)F)c2)c2nnnn2C)n1 [Example 89]	4.56	
CCCCC(=O)Nc1ccnc(CON=C(c2ccc(C)c(C(F)(F)F)c2)c2nnnn2C)n1 [Example 90]	3.94	
CCCCCOC(=O)Nc1cccc(CON=C(c2ccc(C)cc2Cl)c2nnnn2C)n1 [Example 91]	4.7	
CCCCCOC(=O)Nc1cccc(CON=C(c2ccc(C)cc2Cl)c2nnnn2C)n1 [Example 92]	4.54	
